For one test, the system named is smooth muscle cells. Description: Myosin Light Chain Double Phosphorylation Assay (ppMLC, cell assay). The conditions noted are these: serum starved smooth muscle cells, compound 1 h, LPA 30 min. The format is cell-based. The protocol:
Myosin Light Chain Double Phosphorylation Assays (ppMLC, cell assay).
Serum starved smooth muscle cells were incubated with compound for 1 h before induction of myosin light chain phosphorylation by LPA for 30 min. Cells were washed and fixed before staining for phosphorylated myosin light chain and DNA. Phosphorylation status was quantitated with the LI-COR Odyssey Imager. […] For example, the IC50 of Example 169 is 6 nM.

In the next test the target is Rhok2 (Homo sapiens, UniProt O75116). The test is described as follows: Enzymatic Rho kinase assay (Kinase-Glo luminescence, S6 peptide substrate). The format is biochemical. Particulars: Rhok2 enzyme, 2 hours at 25 degrees Celsius. The protocol:
Enzymatic Rho kinase (ROCK I and ROCK II) Assays.
The assay is based on ability of Rhok2 to phosphorylate a specific peptide sequence derived from its substrate—ribosomal protein S6 (amino acid residues 229-239, (LCB-[…]-NH2)). Rhok2 uses ATP as a donor of phosphate for the phosphorylation of the substrate, which leads to the depletion of ATP in the reaction mix. An assay kit (“Kinase-Glo”, Promega) was used to quantify enzyme activity. Using this kit, residual amounts of ATP are measured by a secondary enzymatic reaction, through which luciferase utilizes the remaining ATP to produce luminescence. Luminescent signal is directly proportional to ATP concentration and inversely proportional to Rhok2 activity.
This dose response assay was conducted in 1536 well plate format. Each concentration was tested nominally in triplicate. […] Plates were incubated for 10 minutes and luminescence was read on Perkin-Elmer Viewlux for 60 seconds. […] The percent inhibition for each well has been calculated as follows: % inhibition=(test compound−median_negative_control)/(median_positive_control−median_negative_control)*100 where the positive control is Y-27632 (13 micromolar) and negative control is DMSO only. […]

The test system of the next test is N2a cells. Description: Neurite Length Assay (N2a, cell assay). The conditions noted are these: Mus musculus, neurite retraction induced by 5 uM LPA. The format is cell-based. How it is done:
Neurite Length Assay (N2a, Cell Assay).
N2a cells are maintained in DMEM/FBS at 37 C and 5% CO2. For the experiment the cells were plated on a poly-D-lysine coated 96-well tissue culture plate. After attachment, cell differentiation was induced for 2 days by addition of 10 uM retinoic acid. Cells were treated for 1 h with a dilution of compounds in 0.3% DMSO final concentration before neurite retraction was induced by 5 uM LPA. Cells were stained for tubulin and nuclei and images were acquired on a INCell 1000 workstation. Images were analyzed using the developer toolbox and neurite length was quantitated. […] For example, the IC50 of Example 169 is 4 nM.

Sequence of Rhok2 (O75116 whole entry): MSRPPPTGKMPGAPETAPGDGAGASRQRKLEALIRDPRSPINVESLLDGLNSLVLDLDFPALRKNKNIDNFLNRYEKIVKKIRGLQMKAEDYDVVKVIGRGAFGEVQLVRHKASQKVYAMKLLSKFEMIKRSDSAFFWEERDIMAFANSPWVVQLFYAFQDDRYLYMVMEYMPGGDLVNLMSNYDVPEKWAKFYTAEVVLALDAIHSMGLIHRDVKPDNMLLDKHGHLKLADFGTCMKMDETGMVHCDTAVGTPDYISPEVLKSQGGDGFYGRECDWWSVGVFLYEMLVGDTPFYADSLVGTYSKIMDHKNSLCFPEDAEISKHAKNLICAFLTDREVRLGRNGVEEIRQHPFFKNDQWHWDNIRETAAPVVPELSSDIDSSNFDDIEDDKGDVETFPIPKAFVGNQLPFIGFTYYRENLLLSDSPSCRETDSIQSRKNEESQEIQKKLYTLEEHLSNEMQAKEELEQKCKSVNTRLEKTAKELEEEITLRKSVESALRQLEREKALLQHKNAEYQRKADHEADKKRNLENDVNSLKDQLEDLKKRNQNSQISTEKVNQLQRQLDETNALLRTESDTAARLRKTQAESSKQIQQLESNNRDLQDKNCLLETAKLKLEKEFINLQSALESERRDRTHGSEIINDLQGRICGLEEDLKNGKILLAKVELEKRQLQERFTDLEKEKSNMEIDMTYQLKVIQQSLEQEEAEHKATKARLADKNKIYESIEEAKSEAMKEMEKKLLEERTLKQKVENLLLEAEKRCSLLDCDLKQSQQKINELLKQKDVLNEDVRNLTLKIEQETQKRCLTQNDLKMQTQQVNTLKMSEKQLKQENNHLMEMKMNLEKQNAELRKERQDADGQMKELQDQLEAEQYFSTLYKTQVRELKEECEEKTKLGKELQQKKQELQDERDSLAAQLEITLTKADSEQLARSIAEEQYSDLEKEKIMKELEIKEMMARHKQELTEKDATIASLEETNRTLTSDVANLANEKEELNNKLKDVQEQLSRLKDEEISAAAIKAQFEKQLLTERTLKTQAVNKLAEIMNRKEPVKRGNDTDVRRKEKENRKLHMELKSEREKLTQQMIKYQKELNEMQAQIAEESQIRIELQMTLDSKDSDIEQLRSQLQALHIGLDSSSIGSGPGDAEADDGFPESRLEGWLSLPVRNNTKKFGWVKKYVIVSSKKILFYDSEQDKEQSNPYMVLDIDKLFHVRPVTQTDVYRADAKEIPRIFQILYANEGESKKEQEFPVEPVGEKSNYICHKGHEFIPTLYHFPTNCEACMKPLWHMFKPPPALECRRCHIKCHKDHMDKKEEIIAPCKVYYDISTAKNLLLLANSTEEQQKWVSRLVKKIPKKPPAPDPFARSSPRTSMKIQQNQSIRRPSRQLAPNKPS

For `COc1ccc2c(c1)CC(c1nc3cc(-c4ccncc4)cc(F)c3[nH]1)CO2` (stereo not drawn) [Example 169, 7-fluoro-2-(6-methoxychroman-3-yl)-5-(pyridin-4-yl)-1H-benzo[d]imidazole], the IC50 with smooth muscle cells amounted to 6 nM; against Rhok2, 6 nM; with N2a cells, 4 nM.

For the origin of these results see patent US20110052562A1, “BENZIMIDAZOLES AND ANALOGS AS RHO KINASE INHIBITORS” (The Scripps Research Institute, priority 2007, published 2011).
